Structures can show the parent of a compound that is named as a salt. Where two headings read alike, the source gives them in different places.
Legend:
[1] = after 1 month, implant with 200 nm membrane in PBS sink, normalized to first time point
Procedure: Data are normalized to the values of day 1.
Urocanic acid was then tested. […] This formulation was loaded into an implant equipped with a 200 nm membrane. The implant was placed in 22 mL solution of PBS (the sink solution). The sink solution was replaced every 40 hours with fresh PBS. […] All results were normalized by the results of the first time point to compensate for the degradation that takes place in the sink solution.

[2] = pH=5.3
[3] = physchem; details: pH 7.4

CC(C)OC(=O)[C@H](C)N[P@](=O)(CO[C@H](C)Cn1cnc2c(N)ncnc21)Oc1ccccc1 [tenofovir alafenamide]
percentage of tenofovir alafenamide in the released mixture of tenofovir derivatives ([1]; listed as free base tenofovir alafenamide): 82% | hydrolysis half-life (t1/2) [2]: over 4 months | half-life [3]: < 48 h

CC(C)OC(=O)[C@H](C)N[P@](=O)(CO[C@H](C)Cn1cnc2c(N)ncnc21)Oc1ccccc1 [tenofovir alafenamide fumarate]
percentage of tenofovir alafenamide in the released mixture of tenofovir derivatives [1]: 45%

Source: patent US20230023802A1, “STABILIZED DRUG FORMULATIONS AND METHODS OF LOADING DRUG DELIVERY IMPLANTS” (THE METHODIST HOSPITAL SYSTEM, priority 2019, published 2023)
